According to US4081441A, “Antibacterial agents” (priority 1977, dated 1978):
Like-named read-outs stand apart in the source and are kept apart here.

Columns and labels:
Cl. septicum = test: M.I.C. against anaerobic bacteria, Cl. septicum; format: cell-based; conditions: Clostridium septicum; strain A21869
Pseudomonas aeruginosa [1] = test: Minimum Bactericidal Concentration, inoculum 10^5 cells/ml., at least 99.9% kill; format: cell-based
Excerpt: The effect of increased inoculum size on the bactericidal activity of BL-P1908 was investigated by a second test in which an inoculum size of 10^5 cells/ml. was used and the M.B.C. was defined as the lowest concentration of antibiotics in mcg./ml. needed to kill at least 99.9% of viable Pseudomonas cells.

[2] = Mouse blood (plasma) antibiotic levels after single intramuscular dose; format: in vivo; conditions: im, 40 mg/kg, mice, 40 mg./kg. i.m.; for concentration at 0.25 h: 15 min.; for concentration at 0.5 h: 30 min.; for concentration at 1 h: 60 min.; for concentration at 1.5 h: 90 min.
Description: Plasma antibiotic levels from mice administered a single intramuscular dose of 40 mg./kg. of BL-[…] or carbenicillin are shown in the following table.

Cl. difficile = test: M.I.C. against anaerobic bacteria, Cl. difficile; format: cell-based; conditions: Clostridioides difficile
Cl. ramosum = test: M.I.C. against anaerobic bacteria, Cl. ramosum; format: cell-based; conditions: Thomasclavelia ramosa
Cl. acidiurici = test: M.I.C. against anaerobic bacteria, Cl. acidiurici; format: cell-based; conditions: strain A9560
Pseudomonas aeruginosa [3] = test: In vitro bactericidal synergism, broth dilution checkerboard; format: cell-based; conditions: for MBC: Pseudomonas aeruginosa, drug alone, read-out: Minimum Bactericidal Concentration
Cl. perfringens = test: microbe, parasite or virus in culture; format: cell-based; conditions: Clostridium perfringens
Pseudomonas aeruginosa [4] = test: animal or person; conditions: in Mus musculus, im
Pseudomonas aeruginosa [5] = test: Minimum Bactericidal Concentration, inoculum 10^4 cells/ml., at least 99% kill; format: cell-based
Description: The bactericidal in vitro activity of sodium D(-)-6-(α-(1,2,4-triazine-3,5-dione-6-carboxamido)-4-hydroxyphenylacetamido)penicillanate (BL-P1908) against several strains of Pseudomonas aeruginosa was determined under two sets of conditions. In one test the Minimum Bactericidal Concentrations (M.B.C.) were determined using an inoculum size of 10^4 cells/ml. and the M.B.C. was defined as the lowest concentration of antibiotic in mcg./ml. needed to kill at least 99% of the viable Pseudomonas cells.

Pseudomonas aeruginosa [6] = test: Minimum Inhibitory Concentration, agar dilution, overnight incubation at 37° C.; format: cell-based; conditions: Pseudomonas aeruginosa
Excerpt: A carbenicillin sample was also run for comparative purposes.

Cl. cylindrosporum = test: M.I.C. against anaerobic bacteria, Cl. cylindrosporum; format: cell-based; conditions: strain A9562
Bacteroides fragilis = test: M.I.C. against anaerobic bacteria, Bacteroides fragilis; format: cell-based
[7] = Ave. of Tests 1 and 2, read-out: Blood Level
[8] = Test 1 (Ave. of 6 mice tested), read-out: Blood Level
[9] = Test 2 (Ave. of 8 mice tested), read-out: Blood Level

In the case of CC1(C)S[C@@H]2[C@H](NC(=O)[C@H](NC(=O)c3n[nH]c(=O)[nH]c3=O)c3ccc(O)cc3)C(=O)N2[C@H]1C(=O)O [BL-P1908, sodium D(-)-6-(α-(1,2,4-triazine-3,5-dione-6-carboxamido)-4-hydroxyphenylacetamido)penicillanate], the MIC (Cl. septicum) is reported as 1 µg/mL, the MBC (Pseudomonas aeruginosa [1]; strain 9843A) is reported as 500 µg/mL and the MBC (Pseudomonas aeruginosa [1]; strain 9910) is reported as 500 µg/mL. The MBC (Pseudomonas aeruginosa [1]; strain 9926) was 250 µg/mL, the MBC (Pseudomonas aeruginosa [1]; strain 20126) was 32 µg/mL and the MBC (Pseudomonas aeruginosa [1]; strain 20128) was 16 µg/mL. The MBC (Pseudomonas aeruginosa [1]; strain 20227) was 4 µg/mL, the MBC (Pseudomonas aeruginosa [1]; strain 20228) was 250 µg/mL and the MBC (Pseudomonas aeruginosa [1]; strain 20546) was 500 µg/mL. For the same compound, the MBC (Pseudomonas aeruginosa [1]; strain 20557) was 1000 µg/mL, the MBC (Pseudomonas aeruginosa [1]; strain 20574) was greater than 1000 µg/mL and the MBC (Pseudomonas aeruginosa [1]; strain 20602) was 1000 µg/mL. For the same compound, the MBC (Pseudomonas aeruginosa [1]; strain 20616) was 1000 µg/mL, the MBC (Pseudomonas aeruginosa [1]; strain 20641) was 1000 µg/mL and the MBC (Pseudomonas aeruginosa [1]; strain 20717) was greater than 1000 µg/mL. For the same compound, the MBC (Pseudomonas aeruginosa [1]; strain 20726) was 1000 µg/mL, the MBC (Pseudomonas aeruginosa [1]; strain 21336) was 1000 µg/mL and the concentration at 0.25 h [2, 7] was 26700 ng/mL. For the same compound, the concentration at 0.25 h [2, 8] was 24900 ng/mL, the concentration at 0.25 h [2, 9] was 28400 ng/mL and the concentration at 0.5 h [2, 7] was 17300 ng/mL. It also gave a concentration at 0.5 h [2, 8] of 19400 ng/mL, a concentration at 0.5 h [2, 9] of 15100 ng/mL and a concentration at 1 h [2, 7] of 5300 ng/mL. For the same compound, the concentration at 1 h [2, 8] was 7500 ng/mL, the concentration at 1 h [2, 9] was 3000 ng/mL and the concentration at 1.5 h [2, 7] was less than 2900 ng/mL. For the same compound, the concentration at 1.5 h [2, 8] was less than 3900 ng/mL, the concentration at 1.5 h [2, 9] was less than 1800 ng/mL and the MIC (Cl. difficile; strain A21675) was 2 µg/mL. It also gave an MIC (Cl. difficile; strain A21972) of 4 µg/mL, an MIC (Cl. ramosum; strain A21883) of 0.25 µg/mL and an MIC (Cl. ramosum; strain A21970) of 2 µg/mL. It also gave an MIC (Cl. acidiurici) of 1 µg/mL, an MBC (Pseudomonas aeruginosa [3]; strain A20552) of 500 µg/mL and an MBC (Pseudomonas aeruginosa [3]; strain A21509) of 500 µg/mL. For the same compound, the MBC (Pseudomonas aeruginosa [3]; strain A21510) was 100 µg/mL, the strain sensitivity (Pseudomonas aeruginosa [3]; strain A9843A) was “sensitive” and the strain sensitivity (Pseudomonas aeruginosa [3]; strain A20480) was “resistant”. For the same compound, the strain sensitivity (Pseudomonas aeruginosa [3]; strain A20552) was “sensitive”, the strain sensitivity (Pseudomonas aeruginosa [3]; strain A20620) was “resistant” and the strain sensitivity (Pseudomonas aeruginosa [3]; strain A21509) was “sensitive”. The strain sensitivity (Pseudomonas aeruginosa [3]; strain A21510) was “sensitive”, the MIC (Cl. perfringens; strain A21873) was 0.13 µg/mL and the MIC (Cl. perfringens; strain A21874) was 0.13 µg/mL. It also gave an MIC (Cl. perfringens; strain A21907) of 0.13 µg/mL, an ED50 (Pseudomonas aeruginosa [4]; read-out: PD50 /treatment, P. aeruginosa A9843A, challenge 1 × 10^4, i.m., at 0 and 2 hours) of 4.8 mg/kg and an ED50 (Pseudomonas aeruginosa [4]; read-out: PD50 /treatment, P. aeruginosa A9843A, challenge 2 × 10^4, i.m., at 0 and 2 hours) of 2.5 mg/kg. The ED50 (Pseudomonas aeruginosa [4]; read-out: PD50 /treatment, P. aeruginosa A9843A, challenge 3 × 10^4, i.m., at 0 and 2 hours) was 11 mg/kg, the ED50 (Pseudomonas aeruginosa [4]; read-out: PD50 /treatment, P. aeruginosa A20599, challenge 3 × 10^4, i.m., at 0 and 2 hours) was 5.4 mg/kg and the ED50 (Pseudomonas aeruginosa [4]; read-out: PD50 /treatment, P. aeruginosa A20599, challenge 6 × 10^4, i.m., at 0 and 2 hours) was 9.6 mg/kg. For the same compound, the MBC (Pseudomonas aeruginosa [5]; strain 9843A) was 63 µg/mL, the MBC (Pseudomonas aeruginosa [5]; strain 9910) was 1 µg/mL and the MBC (Pseudomonas aeruginosa [5]; strain 9926) was 2 µg/mL. For the same compound, the MBC (Pseudomonas aeruginosa [5]; strain 20126) was 2 µg/mL, the MBC (Pseudomonas aeruginosa [5]; strain 20128) was 2 µg/mL and the MBC (Pseudomonas aeruginosa [5]; strain 20227) was 2 µg/mL. The MBC (Pseudomonas aeruginosa [5]; strain 20228) was 8 µg/mL, the MBC (Pseudomonas aeruginosa [5]; strain 20546) was 1 µg/mL and the MBC (Pseudomonas aeruginosa [5]; strain 20557) was 16 µg/mL. It also gave an MBC (Pseudomonas aeruginosa [5]; strain 20574) of 2 µg/mL, an MBC (Pseudomonas aeruginosa [5]; strain 20616) of 2 µg/mL and an MBC (Pseudomonas aeruginosa [5]; strain 20641) of 4 µg/mL. It also gave an MBC (Pseudomonas aeruginosa [5]; strain 20717) of 63 µg/mL, an MBC (Pseudomonas aeruginosa [5]; strain 20726) of 2 µg/mL and an MBC (Pseudomonas aeruginosa [5]; strain 21336) of 2 µg/mL. The MIC (Pseudomonas aeruginosa [6]; strain A9502) was 2 µg/mL, the MIC (Pseudomonas aeruginosa [6]; strain A9827) was 1 µg/mL and the MIC (Pseudomonas aeruginosa [6]; strain A9910) was 1 µg/mL. For the same compound, the MIC (Pseudomonas aeruginosa [6]; strain A9923) was 2 µg/mL, the MIC (Pseudomonas aeruginosa [6]; strain A9924) was 2 µg/mL and the MIC (Pseudomonas aeruginosa [6]; strain A9925) was 1 µg/mL. The MIC (Pseudomonas aeruginosa [6]; strain A9926) was 1 µg/mL, the MIC (Pseudomonas aeruginosa [6]; strain A9930) was 2 µg/mL and the MIC (Pseudomonas aeruginosa [6]; strain A9931) was 1 µg/mL. It also gave an MIC (Pseudomonas aeruginosa [6]; strain A15150) of 2 µg/mL, an MIC (Pseudomonas aeruginosa [6]; strain A15151) of 8 µg/mL and an MIC (Pseudomonas aeruginosa [6]; strain A15194) of 4 µg/mL. It also gave an MIC (Pseudomonas aeruginosa [6]; strain A15195) of 2 µg/mL, an MIC (Pseudomonas aeruginosa [6]; strain A15196) of 2 µg/mL and an MIC (Pseudomonas aeruginosa [6]; strain A20125) of 2 µg/mL. The MIC (Pseudomonas aeruginosa [6]; strain A20126) was 0.5 µg/mL, the MIC (Pseudomonas aeruginosa [6]; strain A20127) was 1 µg/mL and the MIC (Pseudomonas aeruginosa [6]; strain A20128) was 1 µg/mL. It also gave an MIC (Pseudomonas aeruginosa [6]; strain A20129) of 1 µg/mL, an MIC (Pseudomonas aeruginosa [6]; strain A20130) of 1 µg/mL and an MIC (Pseudomonas aeruginosa [6]; strain A20227) of 0.5 µg/mL. The MIC (Pseudomonas aeruginosa [6]; strain A20228) was 1 µg/mL, the MIC (Pseudomonas aeruginosa [6]; strain A20546) was 2 µg/mL and the MIC (Pseudomonas aeruginosa [6]; strain A20557) was 4 µg/mL. The MIC (Pseudomonas aeruginosa [6]; strain A20574) was 0.5 µg/mL, the MIC (Pseudomonas aeruginosa [6]; strain A20602) was 2 µg/mL and the MIC (Pseudomonas aeruginosa [6]; strain A20616) was 1 µg/mL. It also gave an MIC (Pseudomonas aeruginosa [6]; strain A20641) of 0.5 µg/mL, an MIC (Pseudomonas aeruginosa [6]; strain A20717) of 4 µg/mL and an MIC (Pseudomonas aeruginosa [6]; strain A20726) of 1 µg/mL. It also gave an MIC (Pseudomonas aeruginosa [6]; strain A21336) of 2 µg/mL, an MIC (Cl. cylindrosporum) of 16 µg/mL and an MIC (Bacteroides fragilis; strain A20920) of 1 µg/mL. For the same compound, the MIC (Bacteroides fragilis; strain A20926) was 2 µg/mL, the MIC (Bacteroides fragilis; strain A20927-1) was 1 µg/mL and the MIC (Bacteroides fragilis; strain A20930) was 16 µg/mL. For the same compound, the MIC (Bacteroides fragilis; strain A20933) was 8 µg/mL, the MIC (Bacteroides fragilis; strain A20934) was 4 µg/mL and the MIC (Bacteroides fragilis; strain A20935) was 1 µg/mL. For the same compound, the MIC (Bacteroides fragilis; strain A21870) was 16 µg/mL, the MIC (Bacteroides fragilis; strain A21871) was 16 µg/mL and the MIC (Bacteroides fragilis; strain A21872) was 16 µg/mL. The MIC (Bacteroides fragilis; strain A21875) was 4 µg/mL, the MIC (Bacteroides fragilis; strain A22053) was 8 µg/mL and the MIC (Bacteroides fragilis; strain A27020) was 16 µg/mL.
